Entries after “also recorded” stand apart in the source; their conditions may differ. Read-outs that look alike come from different tables or passages of the source. Marks after values point to notes of the source that are not given here.
Key:
[1] = tested on: guinea-pig ventricular myocytes; test: Action potential measurements in guinea-pig ventricular myocytes; format: cell-based; details: 1 μM; for action potential duration (APD90) / diastolic membrane potential (Ediast) / maximum depolarization velocity (dV/dtmax) / rate-dependency of each AP parameter: 0.5-1-2-4 Hz; for slope of linear fit STV vs mean APD90: all pacing rates pooled; for short term APD variability (STV) and its dependency on mean APD: pacing rates 0.5-1-2 and 4 Hz
Experimental: (§1) The compounds were characterized for their effect on (i) SR Ca^2+ uptake function and (ii) action potential (AP) in myocytes freshly dissociated from rat and guinea-pig ventricles, respectively, by retrograde coronary perfusion with enzymatic solution (Rocchetti M et al., J Pharmacol Exper Therap 2005, 313(1):207-215).
Cvie216 and Cvie214 effects on action potential parameters were evaluated at the concentration of 1 μM modulating SERCA2a in guinea-pig myocytes. The action potential (AP) contour provides a first-line estimate of the integrated function of membrane ion channels, and its changes may disclose ancillary actions—potentially resulting in untoward effects of the compound. To increase sensitivity of the AP contour as a reporter, effects on the rate-dependency of AP parameters were also tested, thus providing a multiparametric (more stringent) approach. AP were recorded in guinea-pig ventricular myocytes because the AP contour reproduces the human AP. […] Statistical analysis was performed by a “group comparison” model.
APs were recorded in normal Tyrode's solution at 36.5° C. in guinea-pig ventricular myocytes. The following parameters were measured at 4 stimulation rates (0.5-1-2-4 Hz): diastolic membrane potential (Ediast), maximum depolarization velocity (dV/dtmax), action potential duration (APD at 90% of repolarization). Short term APD variability (STV) during steady-state pacing, an index of repolarization stability, was measured as the sum of absolute orthogonal deviations from the identity line in the APDnfAPDn+1 plot (Poincare plot) (Altomare C et al., Circulation A&E 2015, 8:1265-1275).

[2] = target: dog renal Na^+/K^+ ATPase (Canis lupus familiaris (Dog) (Canis familiaris), UniProt P50997); test: biochemical; details: IC50 inhibition of dog renal Na+/K+ ATPase, purified dog kidney enzyme;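 note: enzyme preincubated with inhibitor 10 min at 37 °C, then K^+ and ^32P-ATP added for 15 min, released ^32P counted, activity relative to untreated control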
From the text: Inhibition of Dog Renal Na^+/K^+ ATPase Activity
The compounds were thus tested for their inhibitory effect on the canine renal Na^+/K^+ ATPase enzyme.
Kidneys were excised from 1-3 year-old male beagle dogs (WuXi AppTec, Suzhou Co., Ltd. 1318 Wuzhong Ave., Wuzhong District Suzhou, 215104 P.R. China) under pentobarbital anesthesia (Import Authorization from Italian Health Ministry 0009171-09/04/2015-DGSAF-COD_UO-P, 2015). Kidneys were sliced and the outer medulla was dissected and suspended (1 g/10 ml) in a sucrose-histidine solution containing 250 mM sucrose, 30 mM histidine, and 5 mM EDTA, pH 7.2. The tissue was homogenized by using an Ultra Turrax homogenizer. The sample was centrifuged at 6,000 g for 15 min. Next, the supernatant was decanted and centrifuged at 48,000 g for 30 min. The pellet was suspended in the sucrose-histidine buffer and incubated for 20 min with a sodium-dodecyl-sulphate (SDS) solution dissolved in a gradient buffer containing 25 mM imidazole and 1 mM EDTA, pH 7.5. The sample was layered on the top of a sucrose discontinuous gradient (10, 15, and 29.4%) and centrifuged at 60,000 g for 115 min. The pellet was suspended in the gradient buffer.
Increasing concentrations of the standard ouabain, or tested compound, were incubated with 0.3 μg of purified dog kidney enzyme for 10 min at 37° C. in 120 μl final volume of a medium containing 140 mM NaCl, 3 mM MgCl2, 50 mM Hepes-Tris, 3 mM ATP, pH 7.5. Then, 10 μl of a solution containing 10 mM KCl and 20 nCi of ^32P-ATP (3-10 Ci/mmol, Perkin Elmer) were added. The reaction was allowed to continue for 15 min at 37° C. and then stopped by acidification with 20% v/v ice-cold perchloric acid. ^32P was separated by centrifugation with activated Charcoal (Norit A, Serva) and the radioactivity was counted. The inhibitory activity was expressed as percent of the control samples carried out in the absence of ouabain, or tested compound.

[3] = target: SERCA2a (Cavia porcellus, UniProt A0A286XD73); test: SERCA2a ATPase activity in heart-derived SR microsomes from normal guinea-pig; format: biochemical
Experimental: SERCA2a ATPase Activity in Heart-Derived SR Microsomes from Normal Quinea-Pig
SERCA2a activity was measured in vitro as ^32P-ATP hydrolysis at different Ca^2+ concentrations (100-4000 nM) in the absence and presence of the tested compounds, as described (Micheletti R. et al., Am J Card 2007, 99:24A-32A). Increasing concentrations of each compound (ranging from 1 to 200 nM) were pre-incubated with 2 μg of SERCA2a enriched microsomes for 5 min at 4° C. in 80 μl of a solution containing 100 mM KCl, 5 mM MgCl2, 1 μM A23187, 20 mM Tris, pH 7.5. […] SERCA2a-dependent activity was identified as the portion of total hydrolytic activity inhibited by 10 μM cyclopiazonic acid (Seidler N W et al., J Biol Chem. 1989, 264:17816-23).
Dose-response curves were fitted by using a sigmoidal equation and the activity at the maximal velocity (Vmax) and the Kd for Ca^2+ were calculated (Synergy Software KaleidaGraph 3.6). The effect of the compounds in normal guinea-pig preparations was expressed as % decrease of Kd Ca^2+ (implying an increase of affinity for Ca^2+) of a control sample run in the absence of compound (Table 2). […] Data are mean±SD, n=number of experiments, *at least p<0.05.

[4] = tested on: rat ventricular myocytes isolated from STZ rats; test: SR Ca2+ uptake function in ventricular myocytes from STZ rats (loading protocol); format: cell-based; details: 1 μM
From the text: as §1
To test the effects of the compounds in a model of diastolic dysfunction, Sprague Dawley male rats (150-175 g) were made diabetic by a single tail vein injection of streptozotocin (STZ 50 mg/kg, Sigma-Aldrich). STZ was freshly prepared in 0.1 M sodium citrate buffer at pH 4.5. Fasting glycaemia was measured after 1 week and rats with values >300 mg/dl were considered diabetic. Drug effects on SR Ca^2+ uptake function were evaluated in isolated left ventricular myocytes 9 weeks after STZ injection. Myocytes were incubated for at least 30 min in the presence of a specific drug to guarantee its cell membrane permeation. Statistical analysis was performed by a “group comparison” model.
Drug effects on SR Ca^2+ uptake rate were evaluated with a SR “loading protocol” specifically devised to rule out the contribution of the Na/Ca exchanger (NCX) and to assess the uptake rate starting at low levels of SR Ca^2+ loading. Under voltage-clamp conditions, intracellular Ca^2+ concentration was dynamically measured by epifluorescence (Fluo4-AM). Membrane current, whose time-dependent component mainly reflected ICaL, was simultaneously recorded. The SR loading protocol consisted in emptying the SR by a brief caffeine pulse and then progressively refilling it by voltage steps activating Ca^2+ influx through the sarcolemmal Ca^2+ channel (ICaL). NCX was blocked by omission of Na^+ from intracellular and extracellular solutions. The procedure is in agreement with published methods, with minor modifications (Rocchetti M et al., J Pharmacol Exper Therap 2005, 313:207-215).
Drug effects on SR Ca^2+ uptake were analyzed by considering multiple parameters: the rate at which 1) Ca^2+ transient (CaT) amplitude and 2) the Ca^2+ induced Ca^2+ release (CICR) gain increased during the loading protocol, reflecting the rate at which the SR refilled and the gain of the system, 3) the time constant of cytosolic Ca^2+ decay (τdecay) within each pulse, reflecting net Ca^2+ transport rate (by SERCA2a) across the SR membrane (a decrease in τdecay corresponds to enhanced SR Ca^2+ uptake).

[5] = tested on: STZ diabetic rats; test: Haemodynamics in streptozotocin diabetic rats (echocardiography); format: in vivo, rat; details: after 15 min IV infusion 0.2 mg/kg/min
Experimental: CVie214 and CVie216 were tested in a diabetic rat model. Briefly, rats were injected with streptozotocin (STZ). After 7-9 weeks from STZ injection, rats were submitted to transthoracic echocardiographic and Doppler evaluation performed under urethane anesthesia. Two-dimensionally guided M-mode recordings were used to obtain short-axis measurements of left ventricular end-diastolic diameter (LVEDD), left ventricular end-systolic diameter (LVESD), posterior (PW) and septal (SW) diastolic wall thickness according to the American Society of Echocardiography guidelines (Lang R M et al., Eur J Echocardiography 2006, 7:79-108). Fractional shortening was calculated as FS=(LVEDD−LVESD)/LVEDD. Relative wall thickness was calculated as PWTd+IVSTd/LVEDD. Mitral inflow was measured by pulsed Doppler at the tips of mitral leaflets from an apical 4-chamber view to obtain early and late filling velocities (E, A) and deceleration time of early filling velocity (DT). The deceleration slope was calculated as E/DT ratio. The mitral deceleration index was calculated as DT/E ratio. Tissue Doppler Imaging (TDI) was evaluated from the apical 4-chamber view to record septal mitral annular movements, i.e., peak myocardial systolic (s′) and early and late diastolic velocity (e′ and a′).
After baseline hemodynamic measurements were taken, the rats were administered Digoxin, CVie214, CVie216 and compared to control. Digoxin, used as reference drug, was intravenously infused at 0.11 mg/kg/min for 15 min and echocardiographic parameters measured after 1 h. CVie214-salt and CVie216-salt were intravenously infused in STZ diabetic rats at 0.2 mg/kg/min and echocardiographic parameters were measured after 15 min and 30 min.
Tables 4-6 show the haemodynamic parameters in STZ diabetic rats for Digoxin, CVie214-salt, and Cvie216-salt.

[6] = Acute toxicity in the mouse; details: Albino Swiss CD-1, in vivo
Experimental: The acute toxicity of the tested compound CVie214-salt and CVie216-salt have been determined in the mouse (Albino Swiss CD-1, body weight 30 g). Compounds have been orally administered or intravenously injected at increasing doses to identify the dose causing 50% mortality. Mortality occurred within 30 min after the administration and survival after 24 h.
As comparison, the acute toxicity for the reference compounds Digoxin and Istaroxime were also included. Digoxin refers to literature data (www.lookchem.com, Reference for Digoxin intravenous: Afifi A M, Ammar E M. Pharmacological Research Communications. Vol. 6, Pg. 417, 1974; Reference for Digoxin oral: Archives Internationales de Pharmacodynamie et de Therapie. Vol. 153, Pg. 436, 1965) (Table 3).

[7] = read-out: Kd Ca2+ (nM) mean ± SD, compound 1 nM
[8] = read-out: Kd Ca2+ (nM) mean ± SD, compound 10 nM
[9] = read-out: Kd Ca2+ (nM) mean ± SD, compound 100 nM
[10] = read-out: Kd Ca2+ (nM) mean ± SD, compound 200 nM

Sequence of SERCA2a (A0A286XD73 1-997): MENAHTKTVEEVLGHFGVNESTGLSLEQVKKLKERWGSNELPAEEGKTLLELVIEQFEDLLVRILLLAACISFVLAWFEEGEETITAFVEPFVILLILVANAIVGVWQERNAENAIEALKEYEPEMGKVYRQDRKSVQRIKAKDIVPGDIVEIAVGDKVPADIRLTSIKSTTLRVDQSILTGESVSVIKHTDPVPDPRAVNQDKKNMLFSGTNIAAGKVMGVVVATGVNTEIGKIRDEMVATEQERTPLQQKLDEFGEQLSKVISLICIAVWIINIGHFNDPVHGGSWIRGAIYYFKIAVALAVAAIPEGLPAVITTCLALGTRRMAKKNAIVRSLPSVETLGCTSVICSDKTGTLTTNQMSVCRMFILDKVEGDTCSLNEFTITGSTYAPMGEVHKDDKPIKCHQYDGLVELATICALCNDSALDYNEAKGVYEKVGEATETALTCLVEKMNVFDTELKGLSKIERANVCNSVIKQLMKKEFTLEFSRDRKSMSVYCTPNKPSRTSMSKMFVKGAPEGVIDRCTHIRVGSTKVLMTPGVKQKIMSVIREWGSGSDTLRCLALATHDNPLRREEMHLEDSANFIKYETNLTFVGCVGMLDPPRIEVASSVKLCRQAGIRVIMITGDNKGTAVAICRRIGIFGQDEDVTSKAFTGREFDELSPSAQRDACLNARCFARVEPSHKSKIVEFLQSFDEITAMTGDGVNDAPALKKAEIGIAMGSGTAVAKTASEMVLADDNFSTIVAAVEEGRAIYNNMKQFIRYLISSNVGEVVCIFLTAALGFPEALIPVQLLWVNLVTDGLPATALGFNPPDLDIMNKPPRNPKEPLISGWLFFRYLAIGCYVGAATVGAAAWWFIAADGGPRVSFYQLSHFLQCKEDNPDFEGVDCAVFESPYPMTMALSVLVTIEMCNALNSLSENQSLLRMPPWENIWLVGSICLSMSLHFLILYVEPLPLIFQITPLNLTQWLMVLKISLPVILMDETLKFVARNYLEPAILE

| Compound | action potential duration (APD90) [1] | diastolic membrane potential (Ediast) [1] | maximum depolarization velocity (dV/dtmax) [1] | rate-dependency of each AP parameter [1] | slope of linear fit STV vs mean APD90 [1] | short term APD variability (STV) and its dependency on mean APD [1] | IC50 [2] [nM] | Kd [3, 7] [nM] | Kd [3, 8] [nM] | Kd [3, 9] [nM] | Kd [3, 10] [nM] | Ca2+ transient (CaT) amplitude / rate of CaT increment during SR reloading [4] | Ca2+ uptake by the SR [4] | Ca2+-induced Ca2+ release (CICR) gain [4] | time constant of Ca2+ decay (τdecay) [4] | also measured |
| --- | --- | --- | --- | --- | --- | --- | --- | --- | --- | --- | --- | --- | --- | --- | --- | --- |
| C[C@]12CC[C@H](CC(=O)O)CC1C(O)CC1C2CC[C@]2(C)C(=O)CCC12 (stereo in doubt) [CVie216, 2-(6beta-hydroxy-17-oxoandrostane-3-yl) acetic acid] | did not affect | did not affect | did not affect | did not affect | 0.009 | not significantly affected | > 100000 | 529 ± 75.8 | 465 ± 73.4 | 443 ± 85.1 | 463 ± 76.3 | statistically significant; also recorded: increased | significantly increased | increase | reduction |  |
| C[C@]12CC[C@H](CCCC(=O)O)CC1[C@@H](O)CC1C2CC[C@]2(C)C(=O)CCC12 (stereo partly drawn) [CVie214, 4-(6alpha-hydroxy-17-oxoandrostane-3-yl) butyric acid] | did not affect | did not affect | did not affect | did not affect | 0.014 | not significantly affected | > 100000 | 474 ± 40.4 | 467 ± 62.4 | 427 ± 48.9 | 409 ± 60.1 | failed to significantly increase | significantly increased | affected by the drug as expected from SERCA2a enhancement | close to significance; also recorded: affected by the drug as expected from SERCA2a enhancement | HR heart rate [5]: modestly, but significantly, increased; s′ TDI contraction velocity [5]: modestly, but significantly, increased |
| C[C@]12CC[C@H](CCC3CCNCC3)CC1[C@@H](CO)[C@@H](O)[C@@H]1[C@@H]2CC[C@]2(C)C(=O)CC[C@@H]12 (stereo partly drawn) [CVie412, 3beta-[2-(piperidin-4-yl)ethyl]-6alpha-hydroxymethyl-7alpha-hydroxyandrostane-17-one] |  |  |  |  |  |  | 3000 |  |  | 363 ± 74.1 | 361 ± 76.3 |  |  |  |  | % change in Ca2+ Kd vs control (negative = decrease) ([3]; compound 100 nM): −19.1%; % change in Ca2+ Kd vs control (negative = decrease) ([3]; compound 200 nM): −19.6%* |
| C[C@]12CC/C(=N/OCCN)C[C@@H]1C(=O)C[C@@H]1[C@@H]2CC[C@]2(C)C(=O)CC[C@@H]12 [Istaroxime, (3Z,5a)-3-[(2-aminoethoxy)imino]androstane-6,17-dione, reference compound] |  |  |  |  |  |  | 140 |  |  |  |  |  |  |  |  | LD50 at 24 h ([6]; iv): 29 to 32 mg/kg; LD50 at 24 h ([6]; oral, os): 200 mg/kg; Kd ([3]; compound 1 nM, read-out: Kd Ca2+ (nM) mean ± SD): 524 ± 57.4 nM; Kd ([3]; compound 10 nM, read-out: Kd Ca2+ (nM) mean ± SD): 464 ± 52.4 nM; Kd ([3]; compound 100 nM, read-out: Kd Ca2+ (nM) mean ± SD): 462 ± 59.1 nM |

Source: patent US12503484B2, “Androstane derivatives with activity as pure or predominantly pure stimulators of SERCA2a for the treatment of heart failure” (Seismic Pharmaceuticals, priority 2019, dated 2025)
